Assay results reported in PubChem BioAssay AID2060501 (Molecular Pharmacology Branch, DTP, NCI, 2025).

System: 282377-053-R-J1-PDC complex spheroids, viability
Test: Anticancer human tumor 282377-053-R-J1-PDC patient-derived colon adenocarcinoma cell line growth inhibition [GQUAD]
Details: for IC50: curve of first compound; for viability, T/C: stronger effect = lower value; active = viability on the fitted dose curve at most 10% of control; inactive = the rest
Outline: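 Tumor cells were grown as complex spheroids with HUVEC endothelial cells and mesenchymal stem cells as stroma. G-quadruplex stabilizers were combined with targeted agents over half-log dilutions from near the clinical Cmax, or from 10 microM.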

[1] = second compound 0.0316 µM, first compound 0.0316 µM
[2] = second compound 0.0316 µM, first compound 0.1 µM
[3] = second compound 0.0316 µM, first compound 0.316 µM
[4] = second compound 0.0316 µM, first compound 1 µM
[5] = second compound 0.0316 µM, first compound 3.16 µM
[6] = second compound 0.0316 µM, first compound 10 µM
[7] = second compound 0.1 µM, first compound 0.0316 µM
[8] = second compound 0.1 µM, first compound 0.1 µM
[9] = second compound 0.1 µM, first compound 0.316 µM
[10] = second compound 0.1 µM, first compound 1 µM
[11] = second compound 0.1 µM, first compound 3.16 µM
[12] = second compound 0.1 µM, first compound 10 µM
[13] = second compound 0.316 µM, first compound 0.0316 µM
[14] = second compound 0.316 µM, first compound 0.1 µM
[15] = second compound 0.316 µM, first compound 0.316 µM
[16] = second compound 0.316 µM, first compound 1 µM
[17] = second compound 0.316 µM, first compound 3.16 µM
[18] = second compound 0.316 µM, first compound 10 µM
[19] = second compound 1 µM, first compound 0.0316 µM
[20] = second compound 1 µM, first compound 0.1 µM
[21] = second compound 1 µM, first compound 0.316 µM
[22] = second compound 1 µM, first compound 1 µM
[23] = second compound 1 µM, first compound 3.16 µM
[24] = second compound 1 µM, first compound 10 µM
[25] = second compound 3.16 µM, first compound 0.0316 µM
[26] = second compound 3.16 µM, first compound 0.1 µM
[27] = second compound 3.16 µM, first compound 0.316 µM
[28] = second compound 3.16 µM, first compound 1 µM
[29] = second compound 3.16 µM, first compound 3.16 µM
[30] = second compound 3.16 µM, first compound 10 µM
[31] = second compound 10 µM, first compound 0.0316 µM
[32] = second compound 10 µM, first compound 0.1 µM
[33] = second compound 10 µM, first compound 0.316 µM
[34] = second compound 10 µM, first compound 1 µM
[35] = second compound 10 µM, first compound 3.16 µM
[36] = second compound 10 µM, first compound 10 µM
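Note: spheroids exposed to compounds for 7 days before readout.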
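Throughout, for viability, T/C: percent of vehicle DMSO control viability with 100% = untreated-like growth.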

Cc1cccc(N(C)C(=O)C2C(O)CCN2c2nc(C)cc(C(F)(F)F)c2C#N)c1 (stereo unspecified) + Cc1cnc(CNC(=O)c2c(=O)c3ccc(N4CCCN(C)CC4)nc3n3c2sc2ccccc23)cn1
inactive: viability, T/C [1] 114% | viability, T/C [2] 105% | viability, T/C [3] 108% | viability, T/C [4] 80.3% | viability, T/C [5] 95.1% | viability, T/C [6] 93.1% | viability, T/C [7] 96.1% | viability, T/C [8] 99.3% | viability, T/C [9] 95.5% | viability, T/C [10] 88% | viability, T/C [11] 88.8% | viability, T/C [12] 93.6% | viability, T/C [13] 95% | viability, T/C [14] 85.6% | viability, T/C [15] 98.8% | viability, T/C [16] 77% | viability, T/C [17] 93.4% | viability, T/C [18] 79.7% | viability, T/C [19] 66.3% | viability, T/C [20] 60.6% | viability, T/C [21] 64.1% | viability, T/C [22] 60.3% | viability, T/C [23] 65.9% | viability, T/C [24] 67.1% | viability, T/C [25] 54.6% | viability, T/C [26] 51% | viability, T/C [27] 56.2% | viability, T/C [28] 58.8% | viability, T/C [29] 56.6% | viability, T/C [30] 58.5% | viability, T/C [31] 50.6% | viability, T/C [32] 53.6% | viability, T/C [33] 50.6% | viability, T/C [34] 52.2% | viability, T/C [35] 46.4% | viability, T/C [36] 35.5%
1250 nM: IC50 (second compound 10 µM)
> 10000 nM: IC50 (second compound 0.0316 µM) | IC50 (second compound 0.1 µM) | IC50 (second compound 0.316 µM) | IC50 (second compound 1 µM) | IC50 (second compound 3.16 µM)

Cn1ncnc1[C@H]1c2n[nH]c(=O)c3cc(F)cc(c23)N[C@@H]1c1ccc(F)cc1 + Cc1cnc(CNC(=O)c2c(=O)c3ccc(N4CCCN(C)CC4)nc3n3c2sc2ccccc23)cn1
285 nM: IC50 (second compound 1 µM)
inactive: viability, T/C (second compound 0.0316 µM, first compound 0.000999 µM) 111% | viability, T/C (second compound 0.0316 µM, first compound 0.00316 µM) 87.7% | viability, T/C (second compound 0.0316 µM, first compound 0.00999 µM) 104% | viability, T/C [1] 107% | viability, T/C (second compound 0.0316 µM, first compound 0.0999 µM) 95.9% | viability, T/C [3] 102% | viability, T/C (second compound 0.1 µM, first compound 0.000999 µM) 109% | viability, T/C (second compound 0.1 µM, first compound 0.00316 µM) 101% | viability, T/C (second compound 0.1 µM, first compound 0.00999 µM) 98.7% | viability, T/C [7] 94% | viability, T/C (second compound 0.1 µM, first compound 0.0999 µM) 115% | viability, T/C [9] 116% | viability, T/C (second compound 0.316 µM, first compound 0.000999 µM) 86.1% | viability, T/C (second compound 0.316 µM, first compound 0.00316 µM) 84.1% | viability, T/C (second compound 0.316 µM, first compound 0.00999 µM) 88.4% | viability, T/C [13] 93.2% | viability, T/C (second compound 0.316 µM, first compound 0.0999 µM) 79% | viability, T/C [15] 71.9% | viability, T/C (second compound 1 µM, first compound 0.000999 µM) 65.7% | viability, T/C (second compound 1 µM, first compound 0.00316 µM) 66.1% | viability, T/C (second compound 1 µM, first compound 0.00999 µM) 52.5% | viability, T/C [19] 62.5% | viability, T/C (second compound 1 µM, first compound 0.0999 µM) 51.5% | viability, T/C [21] 49.4% | viability, T/C (second compound 3.16 µM, first compound 0.000999 µM) 56.6% | viability, T/C (second compound 3.16 µM, first compound 0.00316 µM) 47.2% | viability, T/C (second compound 3.16 µM, first compound 0.00999 µM) 51.5% | viability, T/C [25] 49.5% | viability, T/C (second compound 3.16 µM, first compound 0.0999 µM) 52.3% | viability, T/C [27] 46.2% | viability, T/C (second compound 10 µM, first compound 0.000999 µM) 43.3% | viability, T/C (second compound 10 µM, first compound 0.00316 µM) 44.1% | viability, T/C (second compound 10 µM, first compound 0.00999 µM) 52.4% | viability, T/C [31] 45.1% | viability, T/C (second compound 10 µM, first compound 0.0999 µM) 51% | viability, T/C [33] 46.7%
32.7 nM: IC50 (second compound 3.16 µM)
< 0.999 nM: IC50 (second compound 10 µM)
> 316 nM: IC50 (second compound 0.0316 µM) | IC50 (second compound 0.1 µM) | IC50 (second compound 0.316 µM)

O=C(c1cc(Cc2n[nH]c(=O)c3ccccc23)ccc1F)N1CCN(C(=O)C2CC2)CC1 + Cc1cnc(CNC(=O)c2c(=O)c3ccc(N4CCCN(C)CC4)nc3n3c2sc2ccccc23)cn1
2430 nM: IC50 (second compound 3.16 µM)
inactive: viability, T/C [1] 103% | viability, T/C [2] 100% | viability, T/C [3] 140% | viability, T/C [4] 92.9% | viability, T/C [5] 90.6% | viability, T/C [6] 89.2% | viability, T/C [7] 106% | viability, T/C [8] 121% | viability, T/C [9] 93% | viability, T/C [10] 84.9% | viability, T/C [11] 110% | viability, T/C [12] 92.3% | viability, T/C [13] 84.2% | viability, T/C [14] 91.9% | viability, T/C [15] 74.6% | viability, T/C [16] 89.8% | viability, T/C [17] 95.6% | viability, T/C [18] 73.3% | viability, T/C [19] 61.2% | viability, T/C [20] 55.8% | viability, T/C [21] 54.7% | viability, T/C [22] 61% | viability, T/C [23] 60.8% | viability, T/C [24] 54% | viability, T/C [25] 60.8% | viability, T/C [26] 51.1% | viability, T/C [27] 59.2% | viability, T/C [28] 52.3% | viability, T/C [29] 46.2% | viability, T/C [30] 48.6% | viability, T/C [31] 52.9% | viability, T/C [32] 47.4% | viability, T/C [33] 47.7% | viability, T/C [34] 48.9% | viability, T/C [35] 40.1% | viability, T/C [36] 46.6%
> 10000 nM: IC50 (second compound 0.0316 µM) | IC50 (second compound 0.1 µM) | IC50 (second compound 0.316 µM) | IC50 (second compound 1 µM)
70.1 nM: IC50 (second compound 10 µM)
